pIC50: −log10 of the molar value.
Each compound was assayed against T1, human TLR8 (Homo sapiens, UniProt Q9NR97) (assay: HEK293-Blue-hTLR-8 cells assay). Conditions: HEK293-Blue-hTLR8 cells, R848 stimulation, 20 hrs, SEAP reporter; read-out: HEK/hTLR8 IC50.
T1 construct: host or cells: HEK293 (HEK-Blue hTLR8)
T1 sequence (Q9NR97 27-1041): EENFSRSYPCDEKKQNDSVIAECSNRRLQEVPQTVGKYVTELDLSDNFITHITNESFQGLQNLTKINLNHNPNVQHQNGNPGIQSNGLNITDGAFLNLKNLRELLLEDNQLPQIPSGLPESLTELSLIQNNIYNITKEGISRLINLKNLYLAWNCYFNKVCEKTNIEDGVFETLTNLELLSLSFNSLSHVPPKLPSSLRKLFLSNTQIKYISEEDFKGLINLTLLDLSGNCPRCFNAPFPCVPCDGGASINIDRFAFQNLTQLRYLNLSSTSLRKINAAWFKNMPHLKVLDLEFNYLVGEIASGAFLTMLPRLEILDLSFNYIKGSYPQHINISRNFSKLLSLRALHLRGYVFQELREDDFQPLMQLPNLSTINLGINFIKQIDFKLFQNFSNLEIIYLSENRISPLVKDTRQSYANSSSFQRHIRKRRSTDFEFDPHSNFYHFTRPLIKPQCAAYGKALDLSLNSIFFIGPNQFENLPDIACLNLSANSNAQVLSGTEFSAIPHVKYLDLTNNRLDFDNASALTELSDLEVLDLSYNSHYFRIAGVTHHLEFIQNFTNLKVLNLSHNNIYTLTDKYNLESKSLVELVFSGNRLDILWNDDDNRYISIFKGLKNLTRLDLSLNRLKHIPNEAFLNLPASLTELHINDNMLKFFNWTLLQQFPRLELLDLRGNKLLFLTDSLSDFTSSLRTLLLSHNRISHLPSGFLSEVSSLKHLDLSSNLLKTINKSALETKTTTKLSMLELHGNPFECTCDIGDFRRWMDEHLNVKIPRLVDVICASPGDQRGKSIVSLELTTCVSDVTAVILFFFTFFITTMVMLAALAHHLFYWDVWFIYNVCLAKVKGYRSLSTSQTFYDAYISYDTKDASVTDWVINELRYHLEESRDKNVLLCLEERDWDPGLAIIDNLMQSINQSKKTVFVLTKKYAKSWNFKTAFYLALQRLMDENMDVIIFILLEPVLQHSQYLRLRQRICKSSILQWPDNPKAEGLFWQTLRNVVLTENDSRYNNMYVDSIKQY
Type: cell-based
Excerpt: A stable HEK293-Blue-hTLR-8 cell line was purchased from InvivoGen (Cat.#: hkb-htlr8, San Diego, California, USA). These cells were originally designed for studying the stimulation of human TLR8 by monitoring the activation of NF-κB. A SEAP (secreted embryonic alkaline phosphatase) reporter gene was placed under the control of the IFN-β minimal promoter fused to five NF-κB and AP-1-binding sites. The SEAP was induced by activating NF-κB and AP-1 via stimulating HEK-Blue hTLR8 cells with TLR8 ligands. Therefore the reporter expression was declined by TLR8 antagonist under the stimulation of a ligand, such as R848, for incubation of 20 hrs. The cell culture supernatant SEAP reporter activity was determined using QUANTI-Blue™ kit (Cat.#: rep-qb1, Invivogen, San Diego, Ca, USA) at a wavelength of 640 nm, a detection medium that turns purple or blue in the presence of alkaline phosphatase.
HEK293-Blue-hTLR8 cells were incubated at a density of 250,000~450,000 cells/mL in a volume of 170 µL in a 96-well plate in Dulbecco’s Modified Eagle’s medium (DMEM) containing 4.5 g/L glucose, 50 U/mL penicillin, […], […], 2 mM L-glutamine, 10% (v/v) heat-inactivated fetal bovine serum with addition of 20 µL test compound in a serial dilution in the presence of final DMSO at 1% and 10 µL of 60uM R848 in above DMEM, perform incubation under 37° C. in a CO2 incubator for 20 hrs. Then 20 µL of the supernatant from each well was incubated with 180 µL Quanti-blue substrate solution at 37° C. for 2 hrs and the absorbance was read at 620 \~655 nm using a spectrophotometer. The signaling pathway that TLR8 activation leads to downstream NF-κB activation has been widely accepted, and therefore similar reporter assay was modified for evaluating TLR8 antagonist.

| SMILES | pIC50 |
| --- | --- |
| CCc1nc(N2CCN3CCN(c4cnc(N5CC6(CNCCO6)C5)nc4)CC3C2)ccc1-c1cc(C)c(=O)n(C)c1 (stereo not shown) [Example 19, 5-[2-ethyl-6-[2-[2-(5-oxa-2,8-diazaspiro[3.5]nonan-2-yl)pyrimidin-5-yl]-3,4,6,7,9,9a-hexahydro-1H-pyrazino[1,2-a]pyrazin-8-yl]-3-pyridyl]-1,3-dimethyl-pyridin-2-one] | 8.23 |
| Cc1cc(-c2ccc(N3CCN(Cc4ccc(N5CCNCC5)cn4)CC3)nc2C(C)C)cn(C)c1=O [Example 7, 5-[2-isopropyl-6-[4-[(5-piperazin-1-yl-2-pyridyl)methyl]piperazin-1-yl]-3-pyridyl]-1,3-dimethyl-pyridin-2-one] | 9.52 |
| Cc1cc(-c2ccc(N3CCN(Cc4ccc(N5CCNCC5)nc4)CC3)nc2C(C)C)cn(C)c1=O [Example 11, 5-[2-isopropyl-6-[4-[(6-piperazin-1-yl-3-pyridyl)methyl]piperazin-1-yl]-3-pyridyl]-1,3-dimethyl-pyridin-2-one] | 9.52 |
| Cc1cc(-c2ccc(N3CCN(c4ccc5c(n4)CCNC5)CC3)nc2C(C)C)cn(C)c1=O [Example 15, 5-[2-isopropyl-6-[4-(5,6,7,8-tetrahydro-1,6-naphthyridin-2-yl)piperazin-1-yl]-3-pyridyl]-1,3-dimethyl-pyridin-2-one] | 8.70 |
| Cc1cc(-c2ccc(N3CCN(Cc4ccc(N5CCNCC5)cc4)CC3)nc2C(C)C)cn(C)c1=O [Example 13, 5-[2-isopropyl-6-[4-[(4-piperazin-1-ylphenyl)methyl]piperazin-1-yl]-3-pyridyl]-1,3-dimethyl-pyridin-2-one] | 9.52 |
| CCc1nc(N2CCN(Cc3ccc(N4CCNCC4)cc3)CC2)ccc1-c1cc(C)c(=O)n(C)c1 [Example 5, 5-[2-ethyl-6-[4-[(4-piperazin-1-ylphenyl)methyl]piperazin-1-yl]-3-pyridyl]-1,3-dimethyl-pyridin-2-one] | 9.52 |
| CCc1nc(N2CCN(Cc3cnc(N4CC5(CNCCO5)C4)nc3)CC2)ccc1-c1cc(C)c(=O)n(C)c1 [Example 1, 5-[2-ethyl-6-[4-[[2-(5-oxa-2,8-diazaspiro[3.5]nonan-2-yl)pyrimidin-5-yl]methyl]piperazin-1-yl]-3-pyridyl]-1,3-dimethyl-pyridin-2-one] | 9.15 |
| Cc1cc(-c2ccc(N3CCN(Cc4ncc(N5CCNCC5)cn4)CC3)nc2C(C)C)cn(C)c1=O [Example 12, 5-[2-isopropyl-6-[4-[(5-piperazin-1-ylpyrimidin-2-yl)methyl]piperazin-1-yl]-3-pyridyl]-1,3-dimethyl-pyridin-2-one] | 9.15 |
| Cc1cc(-c2ccc(N3CCN(Cc4cnc(N5CC(C)(N)C5)nc4)CC3)nc2C(C)C)cn(C)c1=O [Example 10, 5-[6-[4-[[2-(3-amino-3-methyl-azetidin-1-yl)pyrimidin-5-yl]methyl]piperazin-1-yl]-2-isopropyl-3-pyridyl]-1,3-dimethyl-pyridin-2-one] | 9.52 |
| CCc1nc(N2CCN(Cc3ccc(N4CC5(CNCCO5)C4)nc3)CC2)ccc1-c1cc(C)c(=O)n(C)c1 [Example 2, 5-[2-ethyl-6-[4-[[6-(5-oxa-2,8-diazaspiro[3.5]nonan-2-yl)-3 pyridyl]methyl]piperazin-1-yl]-3-pyridyl]-1,3-dimethyl-pyridin-2-one] | 9.52 |
| CCc1nc(N2CCN(Cc3cnc(N4CC(C)(N)C4)nc3)CC2)ccc1-c1cc(C)c(=O)n(C)c1 [Example 3, 5-[6-[4-[[2-(3-amino-3-methyl-azetidin-1-yl)pyrimidin-5-yl]methyl]piperazin-1-yl]-2-ethyl-3-pyridyl]-1,3-dimethyl-pyridin-2-one] | 9.52 |
| CCc1nc(N2CCN(Cc3cnc(N4CCOC[C@@H](N)C4)nc3)CC2)ccc1-c1cc(C)c(=O)n(C)c1 [Example 4, 5-[6-[4-[[2-[(6S)-6-amino-1,4-oxazepan-4-yl]pyrimidin-5-yl]methyl]piperazin-1-yl]-2-ethyl-3-pyridyl]-1,3-dimethyl-pyridin-2-one] | 9.22 |
| Cc1cc(-c2ccc(N3CCN(Cc4ccc(N5CCNCC5)cc4)CC3)nc2C(F)F)cn(C)c1=O [Example 17, 5-[2-(difluoromethyl)-6-[4-[(4-piperazin-1-ylphenyl)methyl]piperazin-1-yl]-3-pyridyl]-1,3-dimethyl-pyridin-2-one] | 9.52 |
| Cc1cc(-c2ccc(N3CCN(Cc4cnc(N5CCNCC5)cn4)CC3)nc2C(C)C)cn(C)c1=O [Example 8, 5-[2-isopropyl-6-[4-[(5-piperazin-1-ylpyrazin-2-yl)methyl]piperazin-1-yl]-3-pyridyl]-1,3-dimethyl-pyridin-2-one] | 9.52 |
| Cc1cc(-c2ccc(N3CCN4CCN(c5ccc(N6CCNCC6)nc5)CC4C3)nc2C(C)C)cn(C)c1=O (stereo not shown) [Example 16, 5-[2-isopropyl-6-[8-(6-piperazin-1-yl-3-pyridyl)-3,4,6,7,9,9a-hexahydro-1H-pyrazino[1,2-a]pyrazin-2-yl]-3-pyridyl]-1,3-dimethyl-pyridin-2-one] | 8.70 |
| Cc1cc(-c2ccc(N3CCN(Cc4cnc(N5CCNCC5)nc4)CC3)nc2C(C)C)cn(C)c1=O [Example 9, 5-[2-isopropyl-6-[4-[(2-piperazin-1-ylpyrimidin-5-yl)methyl]piperazin-1-yl]-3-pyridyl]-1,3-dimethyl-pyridin-2-one] | 9.52 |
| Cc1cc(-c2ccc(N3CCC(N4CCNCC4)CC3)nc2C(C)C)cn(C)c1=O [Example 18, 5-[2-isopropyl-6-(4-piperazin-1-yl-1-piperidyl)-3-pyridyl]-1,3-dimethyl-pyridin-2-one] | 9.10 |
| Cc1cc(-c2ccc(N3CCN(Cc4cccc(N5CCNCC5)c4)CC3)nc2C(C)C)cn(C)c1=O [Example 14, 5-[2-isopropyl-6-[4-[(3-piperazin-1-ylphenyl)methyl]piperazin-1-yl]-3-pyridyl]-1,3-dimethyl-pyridin-2-one] | 9.52 |
| Cc1cc(-c2ccc(N3CCN(Cc4cnc(N5CC6(CNCCO6)C5)nc4)CC3)nc2C(C)C)cn(C)c1=O [Example 6, 5-[2-isopropyl-6-[4-[[2-(5-oxa-2,8-diazaspiro[3.5]nonan-2-yl)pyrimidin-5-yl]methyl]piperazin-1-yl]-3-pyridyl]-1,3-dimethyl-pyridin-2-one] | 9.52 |

From patent US20230295109A1, “PYRIDINONE COMPOUNDS FOR THE TREATMENT OF AUTOIMMUNE DISEASE” (F. Hoffmann-La Roche AG, priority 2020, published 2023)
